Reference: PMC3362725, “An open-label, phase 1 study evaluating safety, tolerability, and pharmacokinetics of linifanib (ABT-869) in Japanese patients with solid tumors” (Cancer Chemotherapy and Pharmacology, 2012)
Values joined by “and” are separate entries in the source; they are usually repeats but may differ in a detail not shown here. Equal values may be shown once. Read-outs that look alike come from different tables or passages of the source.

Tests used:
HT1080 fibrosarcoma = tested on: HT1080 fibrosarcoma; design: method as in PMID 16648571; settings: predicted based on preclinical murine HT1080 fibrosarcoma model; cited from earlier work
PlGF = assay: Plasma PlGF biomarker (Abbott Architect kits); assay type: in vivo, human (Japanese patients with solid tumors)
Procedure: Plasma for biomarker analysis was collected before linifanib administration on C1D1, C1D15, C2D1, and at the final visit. Concentration of PlGF was determined using Abbott Architect® kits. The relationship of PlGF levels to outcomes was assessed post hoc. To assess the relationship between PlGF induction and toxicity, patients were grouped into those requiring and not requiring dose interruption during the first 30 days of therapy. Median PlGF increase from baseline to C1D15 was compared as a function of toxicity group. To assess the relationship between PlGF induction and efficacy, patients were segregated into those with progressive disease (PD; N = 6) or stable disease (SD; N = 10) at C6, and PlGF increase from baseline to C1D15 was compared.

solid tumors = assay: Tumor response per RECIST (CT or MRI), phase 1 study; assay type: in vivo, human (Japanese patients with solid tumors)
Procedure: Baseline evaluations included physical examination, body weight, vital signs, 12-lead electrocardiogram, ECOG PS assessment, pregnancy test, laboratory tests, and multiple-gated acquisition scan/echocardiogram. Tumor response and/or disease progression was assessed by computerized tomography (CT) scan or magnetic resonance imaging (MRI) per RECIST [20] at screening and on Day (D) 1 of every second cycle prior to the subsequent treatment period, until tumor progression or until final visit. Complete response and partial response (PR) were defined according to RECIST [20]; objective response rate (ORR) was defined as the proportion of patients with best response of PR or CR among the study population. Safety assessments included laboratory test results and adverse events (AEs), which were graded according to CTCAE v3 [18] and coded by medical dictionary of regulatory activities (MedDRA) 1.0.

[1] = Pharmacokinetics of oral linifanib in plasma and urine, non-compartmental analysis, phase 1 study; assay type: in vivo, human (Japanese patients with solid tumors); settings: for DN AUC24 / DN C max: dose-normalized; for AUC: read-out: AUC24
Procedure: Pharmacokinetic sampling occurred pre-dose and 0.5, 1, 2, 3, 4, 6, 8, and 24 h after single-dose linifanib on Cycle (C) 1D1, and pre-dose and 0.5, 1, 2, 3, 4, 6, and 8 h after multiple once-daily doses on C1D15. Urine was collected for 24-h after the C1D15 dose. Linifanib and its metabolite concentrations in plasma and urine were determined using a validated method based on triple quadruple tandem mass spectrometry with a lower limit of quantification of 1.0 ng/mL.
Pharmacokinetic parameter (defined in Table 3) concentrations were determined by non-compartmental analysis using WinNonlin Professional v.5.2 (Pharsight Corp., Cary, NC). […] Additional samples were collected at C3D1 (pre-dose) and every second cycle until study completion or until C15D1. Concentrations for samples at C3D1 and subsequent samples, and data from C1D1 to C1D15 were included in the nonlinear mixed effects models to explore covariates such as age, body weight, and gender (data not shown). Following single-dose linifanib at 0.25 mg/kg, a post hoc analysis compared the pharmacokinetics between the Japanese patients in the current study and non-Japanese patients in two phase 1 studies: Caucasian patients receiving […] linifanib (Abbott, unpublished) and the non-Japanese segment of Asian patients receiving 0.10–0.30 mg/kg linifanib.

[2] = 0.05 mg/kg once daily, multiple dose (C1D15), mean ± SD, N 3
[3] = 0.05 mg/kg oral, single dose (C1D1), mean ± SD, N 3
[4] = 0.10 mg/kg once daily, multiple dose (C1D15), mean ± SD, N 5
[5] = 0.10 mg/kg oral, single dose (C1D1), mean ± SD, N 6
[6] = 0.20 mg/kg once daily, multiple dose (C1D15), mean ± SD, N 3
[7] = 0.20 mg/kg oral, single dose (C1D1), mean ± SD, N 3
[8] = 0.25 mg/kg once daily, multiple dose (C1D15), mean ± SD, N 5
[9] = 0.25 mg/kg oral, single dose (C1D1), mean ± SD, N 6
[10] = human, plasma, 0.1 mg/kg, 0.10 mg/kg oral, single dose (C1D1), mean ± SD, N 6
[11] = human, plasma, 0.2 mg/kg, 0.20 mg/kg oral, single dose (C1D1), mean ± SD, N 3
[12] = human, plasma, 0.05 mg/kg oral, single dose (C1D1), mean ± SD, N 3
[13] = human, plasma, 0.25 mg/kg oral, single dose (C1D1), mean ± SD, N 6

For `Cc1ccc(F)c(NC(=O)Nc2ccc(-c3cccc4[nH]nc(N)c34)cc2)c1` [linifanib, N-(4-(3-amino-1H-indazol-4-yl)phenyl)-N’-(2-fluoro-5-methylphenyl)urea], the “efficacious plasma exposure at steady state” value (HT1080 fibrosarcoma) is listed as ≥ 2.7 µg·h/mL, the “induction of PlGF on C1D15 and C2D1” value (PlGF; 0.05–0.25 mg/kg once daily) is listed as “dose-dependent” and the “median (±SD) increase in PlGF from baseline to C1D15” value (PlGF; 11 patients with dose interruption in first 30 days) is listed as 79.9 (±55.0) pg/mL. The “PlGF change from baseline to C1D15 as a function of response classification” value (PlGF; PD (n = 6) versus SD (n = 10) at C6, p = 0.7) was “No statistically significant difference”, the “median (±SD) increase in PlGF from baseline to C1D15” value (PlGF; five patients without dose interruption in first 30 days, ±16.2) was 22.8 pg/mL and the “PlGF concentration at the final visit” value (PlGF; patients no longer on therapy) was “returned to near baseline levels”. The ORR (solid tumors; 2 of 18 patients, RECIST) was 11.1%, the “patients with tumor reduction >5% by RECIST” value (solid tumors; 12/18 patients) was 67% and the “patients with SD for ≥12 weeks” value (solid tumors; 18 patients) was 11. For the same compound, the “patients with confirmed PR” value (solid tumors; 18 patients, 0.20 mg/kg (breast cancer) and 0.25 mg/kg (lung cancer)) was “Two”, the “patients with reduction in summed tumor dimensions of ≥5%” value (solid tumors; of the 18 patients, cohorts 0.10, 0.20, and 0.25 mg/kg) was 12 and 12/18 and the “median duration of response” value (solid tumors; range 2.8–3.5) was 3.2 months. The “median progression-free survival (PFS)” value (solid tumors; range 2.8–9.8) was 5.7 months, the “patients who continued linifanib with clinical benefit for ≥48 weeks” value (solid tumors; sarcoma, breast, lung, thymic cancer, best response SD) was “Four” and the “R (accumulation ratio calculated as DN AUC24 between D15 and D1)” value ([1]; 0.05 mg/kg once daily, mean ± SD, N 3) was 1.58 ± 0.34. For the same compound, the “R (accumulation ratio calculated as DN AUC24 between D15 and D1)” value ([1]; 0.10 mg/kg once daily, mean ± SD, N 5) was 1.46 ± 0.27, the “R (accumulation ratio calculated as DN AUC24 between D15 and D1)” value ([1]; 0.20 mg/kg once daily, mean ± SD, N 3) was 1.56 ± 0.08 and the “R (accumulation ratio calculated as DN AUC24 between D15 and D1)” value ([1]; 0.25 mg/kg once daily, mean ± SD, N 5) was 1.46 ± 0.23. The “dose proportionality of pharmacokinetics” value ([1]; 0.10–0.25 mg/kg, single and once-daily dosing) was “dose-proportional”, the “DN AUC24” value [1, 2] was 0.77 ± 0.18 µg·h/mL/mg and the “DN C max” value [1, 2] was 0.051 ± 0.007 µg/mL/mg. The “DN AUC24” value [1, 3] was 0.49 ± 0.08 µg·h/mL/mg, the “DN C max” value [1, 3] was 0.036 ± 0.007 µg/mL/mg and the “DN AUC24” value [1, 4] was 0.50 ± 0.11 µg·h/mL/mg. For the same compound, the “DN C max” value [1, 4] was 0.034 ± 0.008 µg/mL/mg, the “DN AUC24” value [1, 5] was 0.33 ± 0.04 µg·h/mL/mg and the “DN C max” value [1, 5] was 0.026 ± 0.004 µg/mL/mg. The “DN AUC24” value [1, 6] was 0.52 ± 0.02 µg·h/mL/mg, the “DN C max” value [1, 6] was 0.036 ± 0.003 µg/mL/mg and the “DN AUC24” value [1, 7] was 0.33 ± 0.01 µg·h/mL/mg. The “DN C max” value [1, 7] was 0.028 ± 0.007 µg/mL/mg, the “DN AUC24” value [1, 8] was 0.37 ± 0.06 µg·h/mL/mg and the “DN C max” value [1, 8] was 0.028 ± 0.002 µg/mL/mg. The “DN AUC24” value [1, 9] was 0.25 ± 0.02 µg·h/mL/mg, the “DN C max” value [1, 9] was 0.019 ± 0.004 µg/mL/mg and the Cmax [1, 10] was 152 ± 36 ng/mL. The AUC [1, 10] was 1910 ± 380 ng·h/mL, the Tmax ([1]; human, plasma, 0.1 mg/kg, 0.10 mg/kg oral, single dose (C1D1), mean ± SD, N 6, read-out: T max) was 1.67 ± 0.52 h and the Cmax [1, 11] was 305 ± 70 ng/mL. The AUC [1, 11] was 3600 ± 430 ng·h/mL, the Tmax ([1]; human, plasma, 0.2 mg/kg, 0.20 mg/kg oral, single dose (C1D1), mean ± SD, N 3, read-out: T max) was 1.67 ± 0.57 h and the Cmax ([1]; human, plasma, oral, 0.1 mg/kg, 0.10 mg/kg once daily, multiple dose (C1D15), mean ± SD, N 5) was 186 ± 64 ng/mL. It also gave a Tmax ([1]; human, plasma, oral, 0.1 mg/kg, 0.10 mg/kg once daily, multiple dose (C1D15), mean ± SD, N 5, read-out: T max) of 2.2 ± 0.45 h, an AUC ([1]; human, plasma, oral, 0.1 mg/kg, 0.10 mg/kg once daily, multiple dose (C1D15), pre-dose concentration assumed equal to 24 h, mean ± SD, N 5) of 2820 ± 1030 ng·h/mL and a Cmax ([1]; human, plasma, oral, 0.2 mg/kg, 0.20 mg/kg once daily, multiple dose (C1D15), mean ± SD, N 3) of 390 ± 41 ng/mL. For the same compound, the Tmax ([1]; human, plasma, oral, 0.2 mg/kg, 0.20 mg/kg once daily, multiple dose (C1D15), mean ± SD, N 3, read-out: T max) was 2.33 ± 0.58 h, the AUC ([1]; human, plasma, oral, 0.2 mg/kg, 0.20 mg/kg once daily, multiple dose (C1D15), pre-dose concentration assumed equal to 24 h, mean ± SD, N 3) was 5630 ± 920 ng·h/mL and the half-life ([1]; human, plasma, oral, after repeated daily dosing, associated with accumulation ratio 1.5, read-out: effective half-life (converted)) was 900 min. It also gave a Cmax ([1]; human, plasma, oral, 0.05 mg/kg once daily, multiple dose (C1D15), mean ± SD, N 3) of 128 ± 17 ng/mL, a Tmax ([1]; human, plasma, oral, 0.05 mg/kg once daily, multiple dose (C1D15), mean ± SD, N 3, read-out: T max) of 2.34 ± 0.57 h and an AUC ([1]; human, plasma, oral, 0.05 mg/kg once daily, multiple dose (C1D15), pre-dose concentration assumed equal to 24 h, mean ± SD, N 3) of 1920 ± 450 ng·h/mL. The Cmax ([1]; human, plasma, oral, 0.25 mg/kg once daily, multiple dose (C1D15), mean ± SD, N 5) was 418 ± 55 ng/mL, the Tmax ([1]; human, plasma, oral, 0.25 mg/kg once daily, multiple dose (C1D15), mean ± SD, N 5, read-out: T max) was 2.2 ± 0.45 h and the AUC ([1]; human, plasma, oral, 0.25 mg/kg once daily, multiple dose (C1D15), pre-dose concentration assumed equal to 24 h, mean ± SD, N 5) was 5460 ± 1160 ng·h/mL. The Cmax [1, 12] was 90 ± 18 ng/mL, the AUC [1, 12] was 1230 ± 210 ng·h/mL and the Tmax ([1]; human, plasma, 0.05 mg/kg oral, single dose (C1D1), mean ± SD, N 3, read-out: T max) was 1.65 ± 0.56 h. The Cmax [1, 13] was 305 ± 68 ng/mL, the AUC [1, 13] was 3780 ± 480 ng·h/mL and the Tmax ([1]; human, plasma, 0.25 mg/kg oral, single dose (C1D1), mean ± SD, N 6, read-out: T max) was 2.33 ± 1.03 h. The Tmax ([1]; human, plasma, across all dose levels (0.05–0.25 mg/kg oral), read-out: average T max) was ~2 h.
